According to the NIST ThermoML archive (doi:10.1016/j.jct.2019.02.011):

Assay: xn = mol fraction of the nth substance listed
Conditions: Liquid, Vibrating tube method

COC(=O)OC [dimethyl carbonate] + CCCO
mass density [kg/m3]
Conditions | 100 kPa | 5000 kPa | 10000 kPa | 15000 kPa | 20000 kPa | 25000 kPa | 30000 kPa | 35000 kPa | 40000 kPa
298.15 K, x1 = 0.0273 | – | – | – | – | – | 824.63 | 827.8 | 830.69 | 833.7
298.15 K, x1 = 0.0506 | – | – | – | – | – | 831.37 | 834.55 | 837.44 | 840.46
298.15 K, x1 = 0.0755 | – | – | – | – | – | 838.51 | 841.73 | 844.68 | 847.74
298.15 K, x1 = 0.1007 | – | – | – | – | – | 845.6 | 848.88 | 851.87 | 854.94
298.15 K, x1 = 0.1495 | – | – | – | – | – | 859.5 | 862.83 | 865.84 | 868.95
298.15 K, x1 = 0.2003 | – | – | – | – | – | 873.75 | 877.1 | 880.17 | 883.35
298.15 K, x1 = 0.2529 | – | – | – | – | – | 888.37 | 891.77 | 894.9 | 898.11
298.15 K, x1 = 0.2993 | – | – | – | – | – | 901.23 | 904.69 | 907.88 | 911.12
298.15 K, x1 = 0.3497 | – | – | – | – | – | 915.04 | 918.51 | 921.76 | 925.01
298.15 K, x1 = 0.401 | – | – | – | – | – | 928.97 | 932.5 | 935.75 | 939.03
298.15 K, x1 = 0.4509 | – | – | – | – | – | 942.42 | 946 | 949.32 | 952.62
298.15 K, x1 = 0.5002 | – | – | – | – | – | 955.58 | 959.23 | 962.55 | 965.93
298.15 K, x1 = 0.5498 | – | – | – | – | 965.01 | 968.71 | 972.41 | 975.8 | 979.21
298.15 K, x1 = 0.5996 | – | – | – | – | 978.09 | 981.85 | 985.57 | 988.96 | 992.41
298.15 K, x1 = 0.6499 | – | – | – | – | 991.19 | 995.01 | 998.78 | 1002.23 | 1005.7
298.15 K, x1 = 0.7006 | – | – | – | – | 1004.45 | 1008.28 | 1012.06 | 1015.57 | 1019.07
298.15 K, x1 = 0.7471 | – | – | – | – | 1016.43 | 1020.32 | 1024.11 | 1027.63 | 1031.19
298.15 K, x1 = 0.7989 | – | – | – | – | 1029.72 | 1033.62 | 1037.46 | 1041.04 | 1044.59
298.15 K, x1 = 0.8491 | – | – | – | – | 1042.57 | 1046.53 | 1050.43 | 1054.02 | 1057.6
298.15 K, x1 = 0.8993 | – | – | – | – | 1055.43 | 1059.4 | 1063.31 | 1066.92 | 1070.52
298.15 K, x1 = 0.9249 | – | – | – | – | 1061.94 | 1065.92 | 1069.84 | 1073.44 | 1077.05
298.15 K, x1 = 0.9489 | – | – | – | – | 1067.96 | 1071.94 | 1075.86 | 1079.52 | 1083.13
298.15 K, x1 = 0.9743 | – | – | – | – | 1074.33 | 1078.36 | 1082.29 | 1085.95 | 1089.6
298.15 K, x1 = 1 | – | – | – | – | 1080.9 | 1084.89 | 1088.82 | 1092.44 | 1096.04
303.15 K, x1 = 0.0273 | 802.96 | 806.96 | 810.58 | 814.19 | 817.69 | 821.09 | 824.3 | – | –
303.15 K, x1 = 0.0506 | 809.34 | 813.38 | 817.06 | 820.71 | 824.27 | 827.72 | 830.93 | – | –
303.15 K, x1 = 0.0755 | 816.25 | 820.3 | 824.02 | 827.68 | 831.25 | 834.74 | 838.05 | – | –
303.15 K, x1 = 0.1007 | 823.16 | 827.26 | 831 | 834.7 | 838.32 | 841.82 | 845.13 | – | –
303.15 K, x1 = 0.1495 | 836.62 | 840.77 | 844.56 | 848.32 | 851.95 | 855.5 | 858.87 | – | –
303.15 K, x1 = 0.2003 | 850.48 | 854.68 | 858.53 | 862.39 | 866.08 | 869.69 | 873.1 | – | –
303.15 K, x1 = 0.2529 | 864.74 | 869 | 872.91 | 876.81 | 880.56 | 884.23 | 887.7 | – | –
303.15 K, x1 = 0.2993 | 877.26 | 881.57 | 885.49 | 889.45 | 893.25 | 896.97 | 900.44 | – | –
303.15 K, x1 = 0.3497 | 890.62 | 894.99 | 899.01 | 903.02 | 906.89 | 910.67 | 914.19 | – | –
303.15 K, x1 = 0.401 | 904.1 | 908.57 | 912.65 | 916.71 | 920.64 | 924.47 | 928.04 | – | –
303.15 K, x1 = 0.4509 | 917.2 | 921.72 | 925.81 | 929.92 | 933.91 | 937.75 | 941.37 | – | –
303.15 K, x1 = 0.5002 | 930.06 | 934.59 | 938.74 | 942.9 | 946.9 | 950.79 | 954.47 | – | –
303.15 K, x1 = 0.5498 | 942.89 | 947.47 | 951.68 | 955.89 | 959.95 | 963.85 | 967.53 | – | –
303.15 K, x1 = 0.5996 | 955.69 | 960.32 | 964.59 | 968.8 | 972.92 | 976.87 | 980.61 | – | –
303.15 K, x1 = 0.6499 | 968.54 | 973.22 | 977.56 | 981.82 | 985.95 | 989.96 | 993.75 | – | –
303.15 K, x1 = 0.7006 | 981.46 | 986.15 | 990.49 | 994.8 | 998.94 | 1003.01 | 1006.8 | – | –
303.15 K, x1 = 0.7471 | 993.16 | 997.9 | 1002.3 | 1006.66 | 1010.86 | 1014.93 | 1018.72 | – | –
303.15 K, x1 = 0.7989 | 1006.2 | 1010.99 | 1015.45 | 1019.82 | 1024.03 | 1028.15 | 1032 | – | –
303.15 K, x1 = 0.8491 | 1018.81 | 1023.65 | 1028.12 | 1032.54 | 1036.81 | 1040.99 | – | – | –
303.15 K, x1 = 0.8993 | 1031.43 | 1036.28 | 1040.81 | 1045.23 | 1049.51 | 1053.69 | – | – | –
303.15 K, x1 = 0.9249 | 1037.82 | 1042.67 | 1047.21 | 1051.62 | 1055.91 | 1060.1 | – | – | –
303.15 K, x1 = 0.9489 | 1043.76 | 1048.62 | 1053.16 | 1057.63 | 1061.92 | 1066.11 | – | – | –
303.15 K, x1 = 0.9743 | 1050.11 | 1054.97 | 1059.51 | 1063.98 | 1068.28 | 1072.47 | – | – | –
303.15 K, x1 = 1 | 1056.61 | 1061.47 | 1066.02 | 1070.49 | 1074.79 | 1078.99 | – | – | –
